Measured values published in patent US20210330611A1, “THERAPY FOR NEUROLOGICAL DISEASES/DISORDERS” (priority 2020, published 2021).
Several values for one entry are separate records, joined by “and”; a condition that tells them apart may be missing. Equal entries are not always repeated. Structures can show the parent of a compound that is named as a salt. Where two headings read alike, the source gives them in different places.

Tests used:
[1] = tested on: fibrin-induced microglia activation; assay: Image-based assay of fibrin-induced microglia activation (HTS and dose response); type: cell-based, rat; details: for inhibition at 10 µM: Rattus norvegicus, Microglia, read-out: Fibrin % inhibition
[2] = tested on: LPS-induced microglia activation; assay: Image-based assay of LPS-induced microglia activation (HTS and dose response); type: cell-based, rat
[3] = tested on: fibrin- and LPS-induced microglia activation; assay: cells; type: cell-based, rat
[4] = tested on: primary rat microglia
[5] = tested on: primary rat microglia; assay: Cell toxicity (dead cells, size <150 μm2) in coated fibrin (cFib) assay; details: primary microglia HTS;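 also: share of dead cells sized under 150 µm2 at 10 µM in fibrin-stimulated microglia HTS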
[6] = primary microglia HTS, fibrin stimulation, cell size >800 μm2 as marker of activation
[7] = Rattus norvegicus, Microglia, 48 h; read-out: LPS % inhibition
[8] = classification by fibrin and LPS inhibition in HTS
[9] = fibrin stimulation, cell size <150 μm2 as marker of toxicity
[10] = primary microglia HTS, fibrin stimulation, compounds at 10 μM
[11] = Rattus norvegicus, Microglia, primary microglia HTS, LPS stimulation, compounds at 10 μM; read-out: LPS % inhibition
[12] = quadrant by fibrin and LPS inhibition, HTS at 10 μM
[13] = fibrin assay, dead cells (size <150 μm2)
[14] = quadrant by fibrin and LPS inhibition in HTS of 1907 compounds

O=C1c2ccccc2C(=O)C1c1ccccc1 [Phenindione] was tested, and the inhibition at 10 µM [1, 6] was -10%, the inhibition at 10 µM [2, 7] was 0% and the “Quadrant (FIG. 5b)” value [3, 8] was “Q4”. The “LPS % cell toxicity” value ([4]; rat) was 0% and the “Fibrin % cell toxicity” value [5, 9] was 1%.

CCCc1ncc(C[n+]2ccccc2C)c(N)n1 [Amprolium] was tested, and the inhibition at 10 µM [1, 10] was -10%, the inhibition at 10 µM [2, 11] was 8% and the “Quadrant (FIG. 5b)” value [3, 12] was “Q4”. The “LPS % cell toxicity” value ([4]; rat) was 0% and the “Fibrin % cell toxicity” value [5, 13] was 1%.

COc1ccc(CC2c3cc(OC)c(OC)cc3CC[N+]2(C)CCC(=O)OCCCCCOC(=O)CC[N+]2(C)CCc3cc(OC)c(OC)cc3C2Cc2ccc(OC)c(OC)c2)cc1OC (centres unmarked) [Atracurium Besylate] was tested, and the Fibrin % inhibition ([1]; primary microglia HTS, fibrin stimulation, compounds at 10 μM, 10 µM) was −3% and 2%, the “Quadrant (FIG. 5b)” value [3, 12] was “Q4” and the “LPS % cell toxicity” value ([4]; rat) was 0%. For the same molecule, the “Fibrin % cell toxicity” value [5, 13] was 0% and 1%.

In the case of C#CCN(C)[C@H](C)Cc1ccccc1 [Selegiline], the “Quadrant (FIG. 5b)” value [3, 8] is reported as “Q4”, the “LPS % cell toxicity” value ([4]; rat) is reported as 0% and the “Fibrin % cell toxicity” value [5, 9] is reported as 0% and 1%.

OC[C@@H](O)[C@@H](O)[C@H](O)[C@@H](O)CO [Sorbitol] was tested, and the “Quadrant (FIG. 5b)” value [3, 8] was “Q4”, the “LPS % cell toxicity” value ([4]; rat) was 0% and the “Fibrin % cell toxicity” value [5, 9] was 1% and 0%.

For C[C@H]1[C@H](NC(=O)/C(=N\OC(C)(C)C(=O)O)c2csc(N)n2)C(=O)N1S(=O)(=O)O [Aztreonam], the “Quadrant (FIG. 5b)” value [3, 12] was “Q4”, the “LPS % cell toxicity” value ([4]; rat) was 0% and the “Fibrin % cell toxicity” value [5, 13] was 1% and 0%.

With O=C(O)Cc1ccccc1 [Phenylacetic acid] the “Quadrant (FIG. 5b)” value [3, 8] was “Q4”, the “LPS % cell toxicity” value ([4]; rat) was 0% and the “Fibrin % cell toxicity” value [5, 9] was 1%.

For CSCC[C@H](NC(=O)[C@H](Cc1c[nH]c2ccccc12)NC(=O)CCNC(=O)OC(C)(C)C)C(=O)N[C@@H](CC(=O)O)C(=O)N[C@@H](Cc1ccccc1)C(N)=O [Pentagastrin], the “LPS % cell toxicity” value [4] was 1% and the “Fibrin % cell toxicity” value [5, 9] was 1%.

In the case of O=C1c2c(O)ccc(O)c2C(=O)c2c(NCCNCCO)ccc(NCCNCCO)c21 [Mitoxantrone], the inhibition at 10 µM [1, 10] is reported as 113%, the inhibition at 10 µM [2, 11] is reported as 122% and the “Quadrant (FIG. 5b)” value [3, 12] is reported as “Q2”. The “LPS % cell toxicity” value ([4]; rat) was 40%.

For CC(=O)Oc1cc2c(s1)CCN(C(C(=O)C1CC1)c1ccccc1F)C2 (centres unmarked) [Prasugrel], the inhibition at 10 µM [1, 6] was 15%, the inhibition at 10 µM [2, 7] was 22% and the “Quadrant (FIG. 5b)” value [3, 8] was “Q4”. The “LPS % cell toxicity” value ([4]; rat) was 1%.

With C[C@]12CCC(=O)C=C1C=C[C@@H]1[C@@H]2CC[C@@]2(C)[C@H]1CC[C@@]2(O)CCC(=O)O [Canrenoic Acid, Potassium Salt] the inhibition at 10 µM ([1]; primary HTS, 10 μM, fibrin-stimulated primary microglia) was -8%, the inhibition at 10 µM ([2]; Rattus norvegicus, Microglia, primary HTS, 10 μM, LPS-stimulated primary microglia; read-out: LPS % inhibition) was 8% and the “Quadrant (FIG. 5b)” value ([3]; primary HTS, 10 μM) was “Q4”. The “LPS % cell toxicity” value ([4]; rat) was 0%.

For OCCOCCN1CCN(C2=Nc3ccccc3Sc3ccccc32)CC1 [Quetiapine], the inhibition at 10 µM [1] was -2%, the inhibition at 10 µM ([2]; Rattus norvegicus, Microglia, 48 h, read-out: LPS % inhibition) was 13% and the “Quadrant (FIG. 5b)” value [3] was “Q4”. The “LPS % cell toxicity” value ([4]; rat) was 0%.

In the case of C1CCN2C[C@@H]3C[C@@H](CN4CCCC[C@@H]34)[C@H]2C1 [Sparteine Sulfate], the inhibition at 10 µM [1, 6] is reported as 7%, the inhibition at 10 µM [2, 7] is reported as 20% and the “Quadrant (FIG. 5b)” value [3, 8] is reported as “Q4”. The “LPS % cell toxicity” value ([4]; rat) was 0%.

O=C(CCCl)NCc1ccccc1 [Beclamide] was tested, and the inhibition at 10 µM [1, 10] was 19%, the inhibition at 10 µM [2, 11] was 2% and the “Quadrant (FIG. 5b)” value [3, 12] was “Q4”. The “LPS % cell toxicity” value ([4]; rat) was 0%.

With CCCCOc1ccc(C(=O)CCN2CCCCC2)cc1 [Dyclonine] the LPS % inhibition ([2]; primary microglia HTS, LPS stimulation, compounds at 10 μM; 10 µM) was 12% and 5%, the “Quadrant (FIG. 5b)” value ([3]; classification by fibrin and LPS inhibition, HTS at 10 μM) was “Q4” and the “LPS % cell toxicity” value ([4]; rat) was 0%. The “Fibrin % cell toxicity” value ([5]; fibrin assay, dead cells (size <150 μm2), compounds at 10 μM) was 1%.

For O=P1(NCCCl)OCCCN1CCCl (centres unmarked) [Ifosfamide], the inhibition at 10 µM ([1]; primary microglia HTS, fibrin stimulation, activation = cell size >800 μm2) was -11%, the inhibition at 10 µM ([2]; Rattus norvegicus, Microglia, 48 h, primary microglia HTS, LPS stimulation, activation = cell size >800 μm2; read-out: LPS % inhibition) was 10% and the “Quadrant (FIG. 5b)” value [3, 14] was “Q4”. For the same molecule, the “LPS % cell toxicity” value ([4]; rat) was 0%.

With CC(=O)O[C@H]1C[C@@H]2CC[C@@H]3[C@H](CC[C@@]4(C)[C@H]3C[C@H]([N+]3(C)CCCCC3)[C@@H]4OC(C)=O)[C@@]2(C)C[C@@H]1[N+]1(C)CCCCC1 [Pancuronium] the Fibrin % inhibition ([1]; primary microglia HTS, fibrin stimulation, increased cell size (>800 μm^2) as marker of activation) was −4%, the LPS % inhibition ([2]; primary microglia HTS, LPS stimulation; increased cell size (>800 μm^2) as marker of activation) was 1% and the “Quadrant (FIG. 5b)” value [3, 14] was “Q4”. For the same molecule, the “LPS % cell toxicity” value ([4]; rat) was 0%.

For CCC1NC(=O)c2cc(S(N)(=O)=O)c(Cl)cc2N1 (centres unmarked) [Quinethazone], the inhibition at 10 µM [1, 6] was 15%, the inhibition at 10 µM [2, 7] was 17% and the “Quadrant (FIG. 5b)” value [3, 8] was “Q4”. For the same molecule, the “LPS % cell toxicity” value ([4]; rat) was 1%.
